Where a SMILES comes first, the peptide text is derived from it. [ ]: non-standard residue; d: D form. NMeF = CN[C@@H](Cc1ccccc1)C(=O)O; dNMeF = CN[C@H](Cc1ccccc1)C(=O)O; NMeL = CN[C@@H](CC(C)C)C(=O)O; dNMeL = CN[C@H](CC(C)C)C(=O)O; NMeA = CN[C@@H](C)C(=O)O; dNMeA = CN[C@H](C)C(=O)O; Sar = CNCC(=O)O
Conditions: PAMPA

| Structure (SMILES) | PAMPA_Papp_Avg (apparent permeability) |
| --- | --- |
| CC[C@@H](C)[C@H]1NC(=O)[C@H](Cc2ccccc2)NC(=O)[C@@H](CC(C)C)N(C)C(=O)[C@@H]2CCCN2C(=O)[C@@H](C(C)C)NC(=O)[C@@H](C)N(C)C(=O)[C@H]2CCCN2C(=O)[C@@H](CC(C)C)NC(=O)[C@H](CC(C)C)NC(=O)[C@@H]2CCCN2C1=O [Design D10.30, P*lFiPLlp*av] (cyclo(F[dI]PL[dL][dP][dNMeA][dV]P[dNMeL])) | 47.8 nm/s |
| CC[C@H](C)[C@@H]1NC(=O)[C@@H](CC(C)C)NC(=O)[C@@H](C)N(C)C(=O)[C@H](Cc2ccccc2)NC(=O)[C@@H](CC(C)C)NC(=O)[C@@H](C)N(C)C(=O)[C@@H]2CCCN2C(=O)[C@H](C(C)C)NC(=O)[C@H]2CCCN2C(=O)[C@@H]2CCCN2C1=O [Design D10.31, F*alIPpVP*al] (cyclo(F[dNMeA][dL]IP[dP]VP[dNMeA][dL])) | 19 nm/s |
| CC[C@@H](C)[C@H]1NC(=O)[C@@H](Cc2ccccc2)NC(=O)[C@@H](CC(C)C)NC(=O)[C@@H]2CCCN2C(=O)[C@H]2CCCN2C(=O)[C@H](CC(C)C)NC(=O)[C@H](CC(C)C)NC(=O)[C@@H](CC(C)C)N(C)C(=O)[C@H](C)N(C)C(=O)[C@H]2CCCN2C1=O [Design D10.34, fip*A*lLLpPl] (cyclo([dL][dF][dI][dP][NMeA][dNMeL]LL[dP]P)) | 45.1 nm/s |
| CC(C)C[C@@H]1NC(=O)[C@H](C(C)C)NC(=O)[C@@H](CC(C)C)N(C)C(=O)[C@H](C)NC(=O)[C@@H](CC(C)C)N(C)C(=O)[C@@H]2CCCN2C(=O)[C@H]2CCCN2C(=O)[C@H](C)N(C)C(=O)[C@H]2CCCN2C(=O)[C@@H](CC(C)C)NC1=O [Design D10.35, Llp*ApP*LA*lV] (cyclo([dNMeL]A[dNMeL]VL[dL][dP][NMeA][dP]P)) | 2.79 nm/s |
| CC[C@@H](C)[C@H]1NC(=O)[C@@H](Cc2ccccc2)NC(=O)[C@H](CC(C)C)NC(=O)[C@@H](C)N(C)C(=O)[C@@H](CC(C)C)NC(=O)[C@H](CC(C)C)NC(=O)[C@H]2CCCN2C(=O)[C@@H]2CCCN2C(=O)[C@@H](C)NC(=O)[C@H]2CCCN2C1=O [Design D10.37, l*aLfipaPpL] (cyclo(L[dF][dI][dP][dA]P[dP]L[dL][dNMeA])) | 6.54 nm/s |
| CC[C@@H](C)[C@H]1NC(=O)[C@H]2CCCN2C(=O)[C@@H]2CCCN2C(=O)[C@@H](CC(C)C)NC(=O)[C@H](C)NC(=O)[C@@H](CC(C)C)N(C)C(=O)[C@@H](C)N(C)C(=O)[C@@H]2CCCN2C(=O)[C@@H]([C@H](C)CC)NC(=O)[C@@H](CC(C)C)N(C)C1=O [Design D10.39, P*a*lAlPpi*li] (cyclo(A[dL]P[dP][dI][dNMeL][dI]P[dNMeA][dNMeL])) | 14.8 nm/s |
| CC[C@H](C)[C@@H]1NC(=O)[C@@H](C(C)C)NC(=O)[C@@H](CC(C)C)N(C)C(=O)[C@H]2CCCN2C(=O)[C@@H](CC(C)C)NC(=O)[C@@H](CC(C)C)N(C)C(=O)[C@H](CC(C)C)NC(=O)[C@H]2CCCN2C(=O)[C@H](C)N(C)C(=O)[C@H]2CCCN2C1=O [Design D10.41, p*lvIp*ApL*ll] (cyclo(I[dP][NMeA][dP]L[dNMeL][dL][dP][dNMeL][dV])) | 56.9 nm/s |
| CC(C)C[C@H]1NC(=O)[C@@H](C(C)C)NC(=O)[C@H](CC(C)C)N(C)C(=O)[C@@H](Cc2ccccc2)NC(=O)[C@H](CC(C)C)N(C)C(=O)[C@H]2CCCN2C(=O)[C@@H]2CCCN2C(=O)[C@H]2CCCN2C(=O)[C@@H](C(C)C)NC(=O)[C@H]2CCCN2C1=O [Design D10.42, vlpvpPp*Lf*L] (cyclo([dP][NMeL][dF][NMeL][dV][dL][dP][dV][dP]P)) | 7.1 nm/s |
| CC(C)C[C@@H]1C(=O)N[C@@H](C)C(=O)N[C@H](CC(C)C)C(=O)N2CCC[C@H]2C(=O)N[C@H](C)C(=O)N2CCC[C@@H]2C(=O)N2CCC[C@H]2C(=O)N[C@H](C(C)C)C(=O)N[C@H](CC(C)C)C(=O)N(C)[C@H](CC(C)C)C(=O)N1C [Design D10.43, apPvl*l*LAlP] (cyclo([dV][dL][dNMeL][dNMeL]A[dL]P[dA][dP]P)) | 1.61 nm/s |
| CC[C@H](C)[C@@H]1NC(=O)[C@@H](Cc2ccccc2)NC(=O)[C@@H](C)NC(=O)[C@@H](C(C)C)NC(=O)[C@H](CCSC)NC(=O)[C@@H]2CCCN2C(=O)[C@H]2CCCN2C(=O)[C@@H]2CCCN2C(=O)[C@@H](C)N(C)C(=O)[C@@H](CC(C)C)N(C)C1=O [Design D10.45, vafI*l*aPpPM] (cyclo(M[dV][dA][dF]I[dNMeL][dNMeA]P[dP]P)) | 4.87 nm/s |
| CC(C)C[C@@H]1NC(=O)[C@H](C)NC(=O)[C@@H]2CCCN2C(=O)[C@H]2CCCN2C(=O)[C@H](Cc2ccccc2)NC(=O)[C@H]2CCCN2C(=O)[C@@H](Cc2ccccc2)N(C)C(=O)[C@@H]2CCCN2C(=O)[C@@H](C)NC(=O)[C@H](CC(C)C)NC1=O [Design D10.49, aP*fpFpPALL] (cyclo(ALL[dA]P[dNMeF][dP]F[dP]P)) | 1.7 nm/s |
| CC[C@@H](C)[C@H]1NC(=O)[C@H](Cc2ccccc2)N(C)C(=O)[C@@H](CC(C)C)N(C)C(=O)[C@H](C(C)C)NC(=O)[C@H](C)NC(=O)[C@@H]2CCCN2C(=O)[C@H](CC(C)C)N(C)C(=O)[C@@H](Cc2ccccc2)N(C)C(=O)[C@H](C)N(C)C(=O)[C@H](C)N(C)C1=O [Design D10.56, *f*LPAV*l*Fi*A*A] (cyclo(AV[dNMeL][NMeF][dI][NMeA][NMeA][dNMeF][NMeL]P)) | 90.2 nm/s |
| CC(C)C[C@@H]1NC(=O)[C@@H](CC(C)C)N(C)C(=O)[C@@H]2CCCN2C(=O)[C@H](CC(C)C)N(C)C(=O)[C@@H](C)NC(=O)[C@@H](CC(C)C)N(C)C(=O)[C@@H]2CCCN2C(=O)CN(C)C(=O)[C@H](CC(C)C)N(C)C(=O)[C@H](Cc2ccccc2)NC1=O [Design D10.57, *L*GP*la*LP*lLF] (cyclo(F[NMeL][Sar]P[dNMeL][dA][NMeL]P[dNMeL]L)) | 30.5 nm/s |
| C[C@H]1NC(=O)[C@@H](Cc2ccccc2)NC(=O)[C@H](Cc2ccccc2)N(C)C(=O)[C@H](Cc2ccccc2)N(C)C(=O)[C@@H](Cc2ccccc2)NC(=O)[C@H]2CCCN2C(=O)CNC(=O)[C@@H](C)NC(=O)[C@@H]2CCCN2C(=O)[C@@H](Cc2ccccc2)NC1=O [Design D10.62, aGpf*F*FfafP] (cyclo(G[dP][dF][NMeF][NMeF][dF][dA][dF]P[dA])) | 42.3 nm/s |
| CC[C@@H](C)[C@H]1NC(=O)[C@@H]2CCCN2C(=O)[C@@H]([C@H](C)CC)NC(=O)[C@@H](C)N(C)C(=O)[C@H](CC(C)C)NC(=O)[C@@H](Cc2ccccc2)NC(=O)[C@H](CC(C)C)N(C)C(=O)[C@H]2CCCN2C(=O)[C@@H](CC(C)C)NC(=O)[C@H](CC(C)C)NC(=O)[C@H]2CCCN2C1=O [Design D11.1, ipLlp*LfL*aiP] (cyclo(L[dL][dP][NMeL][dF]L[dNMeA][dI]P[dI][dP])) | 34.8 nm/s |
